The IC50 is the concentration that inhibits the measured activity by half. One may read the melting point as the temperature, or range, at which the solid turns liquid.

The structures appear in SMILES notation. In brackets after ≈: the same amount, converted by molar mass.

Series [1] deals with WI-38 human normal fibroblast cells. As to the kind of experiment: cell viability assay (MTT). The series is classed as cell-based. Conditions: 24 h; for viability at 31.25 µg/mL: read-out: Validity (%) for sample concentrations (µg/mL) 31.25; for viability at 62.5 µg/mL: 62.50 µg/mL, read-out: Validity (%) for sample concentrations (µg/mL) 62.50; for viability at 125 µg/mL: read-out: Validity (%) for sample concentrations (µg/mL) 125; for viability at 250 µg/mL: read-out: Validity (%) for sample concentrations (µg/mL) 250; for viability at 500 µg/mL: read-out: Validity (%) for sample concentrations (µg/mL) 500. Here is the method:
(§1) WI-38 normal lung fibroblast cells, A549 lung cancer cells, and MDA-MB-231 breast cancer cells were obtained from VACSERA—Cell Culture Unit, Cairo, Egypt. The cell lines were originally obtained from the American Tissue Culture Collection (ATCC). WI-38, A549, and MDA-MB-231 cell lines were cultured in RPMI-1640 medium supplemented with 10% inactivate fetal bovine serum (FBS) and 1% penicillin/streptomycin were bought (Gibco, Invitrogen, CA). WI-38, A549, and MDA-MB-231 cells were seeded into 96-well plates (at a density of 5000 cells/well). On the following day, cells were treated with different concentrations (0, 1, 10, 31.25, 62.5, 125, 250, 500 µg/mL) of 16 fluorene derivatives in fresh medium and incubated for another 24 h. Cell viability was then assessed using the MTT assay (Sigma Aldrich, St. Louis, MO, USA), and the absorbance was read at 570 nm using an ELISA microplate reader (Molecular Devices, Downingtown, PA, USA).

In series [2] the test system is MDA-MB-231 human breast cancer cells. As to the kind of experiment: cell viability assay (MTT). The series is classed as cell-based. Conditions: 24 h; for viability at 1 µg/mL: read-out: Validity (%) for sample concentrations (µg/mL) 1; for viability at 10 µg/mL: read-out: Validity (%) for sample concentrations (µg/mL) 10; for viability at 31.25 µg/mL: read-out: Validity (%) for sample concentrations (µg/mL) 31.25; for viability at 62.5 µg/mL: read-out: Validity (%) for sample concentrations (µg/mL) 62.5; for viability at 125 µg/mL: read-out: Validity (%) for sample concentrations (µg/mL) 125; for viability at 250 µg/mL: read-out: Validity (%) for sample concentrations (µg/mL) 250; for viability at 500 µg/mL: read-out: Validity (%) for sample concentrations (µg/mL) 500. The procedure:
as §1

For series [3], the system named is A549 human lung cancer cells. Put plainly: cell viability assay (MTT). The series is classed as cell-based. Conditions: 24 h; for viability at 1 µg/mL: read-out: Validity (%) for sample concentrations (µg/mL) 1; for viability at 10 µg/mL: read-out: Validity (%) for sample concentrations (µg/mL) 10; for viability at 31.25 µg/mL: read-out: Validity (%) for sample concentrations (µg/mL) 31.25; for viability at 62.5 µg/mL: 62.50 µg/mL, read-out: Validity (%) for sample concentrations (µg/mL) 62.50; for viability at 125 µg/mL: read-out: Validity (%) for sample concentrations (µg/mL) 125; for viability at 250 µg/mL: read-out: Validity (%) for sample concentrations (µg/mL) 250; for viability at 500 µg/mL: read-out: Validity (%) for sample concentrations (µg/mL) 500; for viability at 1000 µg/mL: read-out: Validity (%) for sample concentrations (µg/mL) 1000. The procedure: as §1, with “On the following day, cells were treated with different concentrations (0, 1, 10, 31.25, 62.5, 125, 250, 500 µg/mL) of 16 fluorene derivatives in fresh medium and incubated for another 24 h.” left out

Regarding `CN(C)c1ccc(C2SCC(=O)N2c2nc(-c3cc(Cl)cc4c3-c3ccc(Cl)cc3C4)cs2)cc1` (stereo not drawn) [5e, 3-(4-(2,7-Dichloro-9H-fluoren-4-yl)thiazol-2-yl)-2-(4-(dimethylamino)phenyl)thiazolidin-4-one], the melting point was 94 to 96 °C. For the same molecule, in series [1], the viability at 31.25 µg/mL was 92.4%, the viability at 62.5 µg/mL came out at 85.7%, the viability at 125 µg/mL stood at 74.4% and the viability at 250 µg/mL was determined as 69.3%. Further, in series [1], the viability at 500 µg/mL amounted to 62.9% and the IC50 is over 500 µg/mL. Further, in series [2], the viability at 1 µg/mL turned out to be 97.3%, the viability at 10 µg/mL is 96.3%, the viability at 31.25 µg/mL was 93.6% and the viability at 62.5 µg/mL was determined as 92.6%. For the same molecule, in series [2], the viability at 125 µg/mL was 85.5%, the viability at 250 µg/mL was found to be 75.9%, the viability at 500 µg/mL turned out to be 73.7% and the concentration for half-maximal inhibition (IC50) was over 500 µg/mL. Further, in series [3], the viability at 1 µg/mL was 93.4%, the viability at 10 µg/mL was determined as 90.2%, the viability at 31.25 µg/mL was determined as 85.6% and the viability at 62.5 µg/mL turned out to be 77.3%. In addition, in series [3], the viability at 125 µg/mL came to 72.2%, the viability at 250 µg/mL came to 65.7%, the viability at 500 µg/mL was determined as 62.2% and the viability at 1000 µg/mL amounted to 48.9%. In addition, it took 847 µg/mL (≈ 1570 µM) to reach half-maximal inhibition in series [3] (IC50).
`O=C1CSC(c2ccc([N+](=O)[O-])cc2)N1c1nc(-c2cc(Cl)cc3c2-c2ccc(Cl)cc2C3)cs1` (stereo not drawn) [5f, 3-(4-(2,7-Dichloro-9H-fluoren-4-yl)thiazol-2-yl)-2-(4-nitrophenyl)thiazolidin-4-one] displayed a melting point of 90 to 92 °C. In series [1], the viability at 31.25 µg/mL turned out to be 82.5%, the viability at 62.5 µg/mL was 81.9%, the viability at 125 µg/mL is 77% and the viability at 250 µg/mL came to 74.3%. Moreover, in series [1], the viability at 500 µg/mL was found to be 67.8% and the IC50 was over 500 µg/mL. For the same molecule, in series [2], the viability at 1 µg/mL came out at 98.1%, the viability at 10 µg/mL is 97.2%, the viability at 31.25 µg/mL came to 89% and the viability at 62.5 µg/mL is 84.7%. For the same molecule, in series [2], the viability at 125 µg/mL was found to be 81%, the viability at 250 µg/mL amounted to 79.6%, the viability at 500 µg/mL stood at 77.5% and the half-maximal inhibitory concentration (IC50) was over 500 µg/mL. Further, in series [3], the viability at 1 µg/mL is 95%, the viability at 10 µg/mL was found to be 89.8%, the viability at 31.25 µg/mL stood at 87% and the viability at 62.5 µg/mL was 83.8%. In addition, in series [3], the viability at 125 µg/mL was 79.2%, the viability at 250 µg/mL worked out at 75.4%, the viability at 500 µg/mL was 65.5% and the viability at 1000 µg/mL is 12.6%. Further, the IC50 in series [3] turned out to be 567 µg/mL (≈ 1050 µM).
For `O=C1CSC(c2cccs2)N1c1nc(-c2cc(Cl)cc3c2-c2ccc(Cl)cc2C3)cs1` (stereo not drawn) [5k, 3-(4-(2,7-Dichloro-9H-fluoren-4-yl)thiazol-2-yl)-2-(thiophen-2-yl)thiazolidin-4-one], the melting point lay in the range of 165 to 167 °C. Further, in series [1], the viability at 31.25 µg/mL was 80.8%, the viability at 62.5 µg/mL turned out to be 71.4%, the viability at 125 µg/mL was found to be 64.8% and the viability at 250 µg/mL worked out at 51.4%. Besides, in series [1], the viability at 500 µg/mL was determined as 41.9% and the 50% inhibitory concentration (IC50) is 288 µg/mL (≈ 574 µM). In series [2], the viability at 1 µg/mL was 92.3%, the viability at 10 µg/mL amounted to 85.8%, the viability at 31.25 µg/mL turned out to be 68.7% and the viability at 62.5 µg/mL was 60.8%. In series [2], the viability at 125 µg/mL is 56.7%, the viability at 250 µg/mL turned out to be 50.6%, the viability at 500 µg/mL is 43% and the IC50 is 330 µg/mL (≈ 658 µM). In series [3], the viability at 1 µg/mL was found to be 95.2%, the viability at 10 µg/mL turned out to be 92.3%, the viability at 31.25 µg/mL was found to be 85.9% and the viability at 62.5 µg/mL was 83.9%. Besides, in series [3], the viability at 125 µg/mL is 79.6%, the viability at 250 µg/mL turned out to be 76.9%, the viability at 500 µg/mL stood at 60.9% and the viability at 1000 µg/mL came out at 22.6%. For the same molecule, 613 µg/mL (≈ 1220 µM) corresponded to half-maximal inhibition in series [3] (IC50).
For `O=C(O)c1ccc(C2C(Cl)C(=O)N2c2nc(-c3cc(Cl)cc4c3-c3ccc(Cl)cc3C4)cs2)cc1` (stereo not drawn) [6g, 4-(3-Chloro-1-(4-(2,7-dichloro-9H-fluoren-4-yl)thiazol-2-yl)-4-oxoazetidin-2-yl)benzoic acid], the melting point lay within 125 to 127 °C. Besides, in series [1], the viability at 31.25 µg/mL came out at 73.9%, the viability at 62.5 µg/mL turned out to be 42%, the viability at 125 µg/mL stood at 37.4% and the viability at 250 µg/mL came to 35.7%. Also, in series [1], the viability at 500 µg/mL is 30.6% and the IC50 was determined as 40 µg/mL (≈ 73.8 µM). Also, in series [2], the viability at 1 µg/mL was found to be 96.7%, the viability at 10 µg/mL was found to be 93.9%, the viability at 31.25 µg/mL is 91.2% and the viability at 62.5 µg/mL is 82.9%. Moreover, in series [2], the viability at 125 µg/mL amounted to 71.1%, the viability at 250 µg/mL amounted to 65.5%, the viability at 500 µg/mL was 55.6% and the IC50 was over 500 µg/mL. Further, in series [3], the viability at 1 µg/mL worked out at 94.5%, the viability at 10 µg/mL came out at 90.1%, the viability at 31.25 µg/mL was determined as 86.9% and the viability at 62.5 µg/mL came to 73.5%. In addition, in series [3], the viability at 125 µg/mL is 68.9%, the viability at 250 µg/mL is 63.1%, the viability at 500 µg/mL stood at 18.4% and the viability at 1000 µg/mL came out at 14.4%. Also, the IC50 in series [3] is 308 µg/mL (≈ 568 µM).
For `CC(=O)O[C@H]1C(=O)[C@@]2(C)[C@H]([C@H](OC(=O)c3ccccc3)[C@]3(O)C[C@H](OC(=O)[C@H](O)[C@@H](NC(=O)c4ccccc4)c4ccccc4)C(C)=C1C3(C)C)[C@]1(OC(C)=O)CO[C@@H]1C[C@@H]2O` [Taxol, reference compound], the figures for the IC50 in series [1], in series [2] and in series [3] were 41 µg/mL (≈ 48 µM), 40 µg/mL (≈ 46.8 µM) and 2.3 µg/mL (≈ 2.69 µM), respectively.
